Several values for one entry are separate records, joined by “and”; a condition that tells them apart may be missing. Equal values may be shown once.
molecular target: D(3) dopamine receptor (Homo sapiens, UniProt P35462)
Sequence (P35462 as listed by the source): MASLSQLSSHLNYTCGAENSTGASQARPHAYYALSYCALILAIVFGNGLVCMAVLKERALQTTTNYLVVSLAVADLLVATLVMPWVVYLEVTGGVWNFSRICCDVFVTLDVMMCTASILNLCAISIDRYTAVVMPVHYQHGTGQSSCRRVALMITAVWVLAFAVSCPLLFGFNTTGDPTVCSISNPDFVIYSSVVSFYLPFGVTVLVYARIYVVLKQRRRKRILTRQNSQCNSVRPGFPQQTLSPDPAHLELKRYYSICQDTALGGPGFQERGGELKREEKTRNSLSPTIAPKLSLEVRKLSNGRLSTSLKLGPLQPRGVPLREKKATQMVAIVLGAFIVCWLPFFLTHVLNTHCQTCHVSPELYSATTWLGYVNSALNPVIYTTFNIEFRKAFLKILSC

Row | SMILES | Ki
1 | CCCN1CCO[C@@H]2c3cc(O)ccc3OC[C@H]21 | 2.14 nM and 7.59 nM and 3.55 nM
2 | CCCN(CCC)C1CCc2cc3c(cc2C1)OCC3 (centres undefined) | 12.3 nM and 33.1 nM and 11.5 nM
3 | CCCN(CCC)C1CCc2cc(CS(=O)(=O)c3ccc(OC)cc3)ccc2C1 (centres undefined) [GR218231] | 1.12 nM and 1.95 nM and 1.38 nM
4 | N#Cc1ccc2c(c1)[C@H]1CN(CCCCNC(=O)c3ccc(-c4ccccc4)cc3)C[C@@H]1CO2 [S33084] | 0.302 nM and 0.933 nM and 0.372 nM
